From patent publication US9523097B2, “Engineering rubber production in plants” (The United States of America, as represented by the …, priority 2013, dated 2016)
Where two headings read alike, the source gives them in different places.

Assays:
guayule explants = conditions: for Size of Callus with multi shoots: 5-point scale
Experimental: To evaluate the effect of calcium nitrate on guayule regeneration, guayule explants were cultured on MS basal medium with plant growth regulators (PGRs) (1.0 mg·L^−1 BA and 0.1 mg·L^−1 NAA) and calcium nitrate. […] calcium nitrate concentrations, 0, 100, 250, 500, 750, 1000 and 1500 mg·L^−1, were tested (Table 3). Calcium nitrate was added to the culture medium before adjusting the pH to 5.7, prior to autoclaving. DKW basal medium (0.75 mg·L^−1 BA and 0.25 mg·L^−1 NAA) was used as a control.

guayule leaf explants = experiment: Resistance of regenerated shoot on media with spectinomycin; assay type: cell-based, Parthenium argentatum
Experimental: To confirm whether the guayule explants were resistant to spectinomycin, leaf explants from control plants were cultured on regeneration DKW media that contained 0.75 mg·L^−1 BA and 0.125 mg·L^−1 NAA at various spectinomycin antibiotic levels. Several concentration of spectinomycin (0, 2, 4, 6, 8, 10, 12, 14, 16, 18 and 20 mg·L^−1) was added to the media to confirm the effects of antibiotic concentration on regeneration.

With `O.O.O.O.O=[N+]([O-])[O-].O=[N+]([O-])[O-].[Ca+2]` [Calcium Nitrate, calcium nitrate tetrahydrate] the “Size of Callus with multi shoots” value (guayule explants; 100 mg·L−1, DKW with 0.75 mg·L−1 BA and 0.25 mg·L−1 NAA) was 3.0b, the “Number of elongated shoots” value (guayule explants; 100 mg·L−1, DKW with 0.75 mg·L−1 BA and 0.25 mg·L−1 NAA, per total explants) was 6/30 and the “Size of Callus with multi shoots” value (guayule explants; 100 mg·L−1, MS with 1.0 mg·L−1 BA and 0.1 mg·L−1 NAA) was 4.5a. The “Number of elongated shoots” value (guayule explants; 100 mg·L−1, MS with 1.0 mg·L−1 BA and 0.1 mg·L−1 NAA, per total explants) was 3/30, the “Size of Callus with multi shoots” value (guayule explants; 250 mg·L−1, DKW with BA/NAA) was 2.9b and the “Number of elongated shoots” value (guayule explants; 250 mg·L−1, DKW with BA/NAA, per total explants) was 3/30. The “Size of Callus with multi shoots” value (guayule explants; 250 mg·L−1, MS with BA/NAA) was 4.4a, the “Number of elongated shoots” value (guayule explants; 250 mg·L−1, MS with BA/NAA, per total explants) was 13/30 and the “Size of Callus with multi shoots” value (guayule explants; 500 mg·L−1, DKW with BA/NAA) was 2.2bc. For the same molecule, the “Number of elongated shoots” value (guayule explants; 500 mg·L−1, DKW with BA/NAA, per total explants) was 0/30, the “Size of Callus with multi shoots” value (guayule explants; 500 mg·L−1, MS with BA/NAA) was 4.1ab and the “Number of elongated shoots” value (guayule explants; 500 mg·L−1, MS with BA/NAA, per total explants) was 6/30. The “Size of Callus with multi shoots” value (guayule explants; 1000 mg·L−1, DKW with BA/NAA) was 2.0c, the “Number of elongated shoots” value (guayule explants; 1000 mg·L−1, DKW with BA/NAA, per total explants) was 0/30 and the “Size of Callus with multi shoots” value (guayule explants; 1000 mg·L−1, MS with BA/NAA) was 3.6c. For the same molecule, the “Number of elongated shoots” value (guayule explants; 1000 mg·L−1, MS with BA/NAA, per total explants) was 0/30, the “Size of Callus with multi shoots” value (guayule explants; 1500 mg·L−1, DKW with BA/NAA) was 1.7 days and the “Number of elongated shoots” value (guayule explants; 1500 mg·L−1, DKW with BA/NAA, per total explants) was 0/30. For the same molecule, the “Size of Callus with multi shoots” value (guayule explants; 1500 mg·L−1, MS with BA/NAA) was 2.1 days, the “Number of elongated shoots” value (guayule explants; 1500 mg·L−1, MS with BA/NAA, per total explants) was 0/30 and the “effect on elongated shoots” value (guayule explants; higher concentrations) was “negative effect”. For the same molecule, the “Number of elongated shoots” value (guayule explants; moderate concentrations (0, 100, 250, 500 and 1000 mg·L−1), MS and DKW medium) was “significantly improved”.
For `CN[C@@H]1[C@H](O)[C@H](NC)[C@H]2O[C@@]3(O)C(=O)C[C@@H](C)O[C@H]3O[C@@H]2[C@H]1O` [spectinomycin], the “concentration fatal to guayule plants” value (guayule leaf explants) was “about 12 mg/L”, the “Callus formation and shoot emergence” value (guayule leaf explants; 8 mg·L−1, DKW regeneration medium) was “not affected” and the “Callus formation and shoot emergence” value (guayule leaf explants; 10 mg·L−1, DKW regeneration medium) was “significantly reduced”. For the same molecule, the “Callus formation and shoot emergence” value (guayule leaf explants; 12 mg·L−1 or higher, DKW regeneration medium) was “completely inhibited”.
